# From patent US9211310B2, “Use of a Chinese medicine composition in preparing medicaments for treating secondary prevention of myocardial infarction” (TASLY PHARMACEUTICAL GROUP CO., LTD, priority 2010, dated 2015)
# System: patients after acute myocardial infarction
# Assay: Life quality, Seattle Angina Questionnaire (SAQ), same clinical trial
# Type: in vivo, human
# Conditions: 3 months after treatment
# Text: 3508 patients who were in accordance with the diagnostic standards of AMI for 28 days to 2 years and differentiated as Qi deficiency and blood stagnation syndrome by TCM were studied. 0.5 g Chinese medicine composition prepared by the method of EXAMPLE 1 (Coded as QSYQ) was administrated half an hour after meal, 3 times per day.
# There were 19 questions in the Seattle angina questionnaire (SAQ), including 5 parts: physical limitation (PL), anginal stability (AS), anginal frequency (AF), treatment satisfaction (TS) and disease perception (DP). After being given necessary explanation by doctors, the questions were answered independently by patients.
# They included the overall survival time, angina pectoris score, TCM symptom score and life quality score, where angina pectoris score, TCM symptom score and life quality score were evaluated at randomization, in 1st, 3rd, 6th, 9th, 12th month after treatment and 18th month after follow-up.
# All evaluation results of SAQ were described during the period of observation, and Wilcoxon rank sum test was used for inter-group comparison.
# The evaluation results in the SAQ were depicted in different observations, and inter-group comparison was tested by Wilcoxon Rank-sum test.
compound,measurement,setting,value
"CC(=O)Oc1ccccc1C(=O)O [Control group, aspirine]","SAQ 3rd question: <1 time per week, % of cases",FAS,(21.15%)
same,"SAQ 3rd question: <1 time per week, cases",FAS,368
same,"SAQ 3rd question: No onset, % of cases",FAS,(0.00%)
same,"SAQ 3rd question: No onset, cases",FAS,0
same,"SAQ 3rd question: ≧3 times per week, % of cases",FAS,(42.13%)
same,"SAQ 3rd question: ≧3 times per week, cases",FAS,733
same,"SAQ 3rd question: ≧4 times per day, % of cases",FAS,(0.92%)
same,"SAQ 3rd question: ≧4 times per day, cases",FAS,16
same,"SAQ Question 1-3: Mildly limited, number of patients",FAS,93
same,"SAQ Question 1-3: Mildly limited, percent of patients",FAS,(5.33%)
same,"SAQ Question 1-3: Moderately limited, number of patients",FAS,23
same,"SAQ Question 1-3: Moderately limited, percent of patients",FAS,(1.32%)
same,"SAQ Question 1-3: Not limited, number of patients",FAS,1318
same,"SAQ Question 1-3: Not limited, percent of patients",FAS,(75.57%)
same,"SAQ Question 1-3: Other reason, number of patients",FAS,9
same,"SAQ Question 1-3: Other reason, percent of patients",FAS,(0.52%)
same,"SAQ Question 1-3: Severely limited, number of patients",FAS,5
same,"SAQ Question 1-3: Severely limited, percent of patients",FAS,(0.29%)
same,"SAQ Question 1-3: Slightly limited, number of patients",FAS,296
same,"SAQ Question 1-3: Slightly limited, percent of patients",FAS,(16.97%)
same,"SAQ Question 1-4: Mildly limited, number of patients",FAS,325
same,"SAQ Question 1-4: Mildly limited, percent of patients",FAS,(18.65%)
same,"SAQ Question 1-4: Moderately limited, number of patients",FAS,120
same,"SAQ Question 1-4: Moderately limited, percent of patients",FAS,(6.88%)
same,"SAQ Question 1-4: Not limited, number of patients",FAS,668
same,"SAQ Question 1-4: Not limited, percent of patients",FAS,(38.32%)
same,"SAQ Question 1-4: Other limited, number of patients",FAS,12
same,"SAQ Question 1-4: Other limited, percent of patients",FAS,(0.69%)
same,"SAQ Question 1-4: Severely limited, number of patients",FAS,29
same,"SAQ Question 1-4: Severely limited, percent of patients",FAS,(1.66%)
same,"SAQ Question 1-4: Slightly limited, number of patients",FAS,589
same,"SAQ Question 1-4: Slightly limited, percent of patients",FAS,(33.79%)
same,"SAQ Question 1-5: Mildly limited, number of patients",FAS,311
same,"SAQ Question 1-5: Mildly limited, percent of patients",FAS,(17.84%)
same,"SAQ Question 1-5: Moderately limited, number of patients",FAS,162
same,"SAQ Question 1-5: Moderately limited, percent of patients",FAS,(9.29%)
same,"SAQ Question 1-5: Not limited, number of patients",FAS,709
same,"SAQ Question 1-5: Not limited, percent of patients",FAS,(40.68%)
same,"SAQ Question 1-5: Other reasons, number of patients",FAS,12
same,"SAQ Question 1-5: Other reasons, percent of patients",FAS,(0.69%)
same,"SAQ Question 1-5: Severely limited, number of patients",FAS,21
same,"SAQ Question 1-5: Severely limited, percent of patients",FAS,(1.20%)
same,"SAQ Question 1-5: Slightly limited, number of patients",FAS,528
same,"SAQ Question 1-5: Slightly limited, percent of patients",FAS,(30.29%)
same,"SAQ Question 1-9: Mildly limited, % of cases",FAS,(18.63%)
same,"SAQ Question 1-9: Mildly limited, cases",FAS,318
same,"SAQ Question 1-9: Moderately limited, % of cases",FAS,(20.04%)
same,"SAQ Question 1-9: Moderately limited, cases",FAS,342
same,"SAQ Question 1-9: Not limited, % of cases",FAS,(3.57%)
same,"SAQ Question 1-9: Not limited, cases",FAS,61
same,"SAQ Question 1-9: Other reaons, % of cases",FAS,(5.98%)
same,"SAQ Question 1-9: Other reaons, cases",FAS,102
same,"SAQ Question 1-9: Severely limited, % of cases",FAS,(38.90%)
same,"SAQ Question 1-9: Severely limited, cases",FAS,664
same,"SAQ Question 1-9: Slightly limited, % of cases",FAS,(12.89%)
same,"SAQ Question 1-9: Slightly limited, cases",FAS,220
same,"SAQ 2nd question: Clearly increased, % of cases",PP,(0.41%)
same,"SAQ 2nd question: Clearly increased, cases",PP,6
same,"SAQ 2nd question: Clearly reduced, % of cases",PP,(22.01%)
same,"SAQ 2nd question: Clearly reduced, cases",PP,322
same,"SAQ 2nd question: Same, % of cases",PP,(41.97%)
same,"SAQ 2nd question: Same, cases",PP,614
same,"SAQ 2nd question: Slightly increased, % of cases",PP,(3.42%)
same,"SAQ 2nd question: Slightly increased, cases",PP,50
same,"SAQ 2nd question: Slightly reduced, % of cases",PP,(32.19%)
same,"SAQ 2nd question: Slightly reduced, cases",PP,471
same,"SAQ 3rd question: 1-2 times per week, % of cases",PP,(32.19%)
same,"SAQ 3rd question: 1-2 times per week, cases",PP,471
same,"SAQ 3rd question: 1-3 times per day, % of cases",PP,(3.42%)
same,"SAQ 3rd question: 1-3 times per day, cases",PP,50
same,"SAQ 3rd question: <1 time per week, % of cases",PP,(22.01%)
same,"SAQ 3rd question: <1 time per week, cases",PP,322
same,"SAQ 3rd question: No onset, % of cases",PP,(0.00%)
same,"SAQ 3rd question: No onset, cases",PP,0
same,"SAQ 3rd question: ≧3 times per week, % of cases",PP,(41.97%)
same,"SAQ 3rd question: ≧3 times per week, cases",PP,614
same,"SAQ 3rd question: ≧4 times per day, % of cases",PP,(0.41%)
